Measurements from ChEMBL document CHEMBL4706640, “Structure-Based Drug Design and Synthesis of PI3Kα-Selective Inhibitor (PF-06843195)” (J Med Chem, 2021).
pIC50, pKi: −log10 of the molar value. ≈ marks a conversion by molar mass, not a printed value. One block for each molecule: values may come before it. Calls of active or inactive are those of the source. The rule behind the calls is not given here.

Key:
MCF7 [1] = test: Antitumor activity against human MCF7 cells xenografted in mouse model assessed as tumor growth regression in presence of palbociclib; format: functional, cell-based
[2] = Cmax in Wistar Han rat at […], po; format: ADME, organism-based; conditions: in vivo
[3] = Tmax in Wistar Han rat at […], po; format: ADME, organism-based; conditions: in vivo
[4] = Plasma clearance in Wistar Han rat at 2.3 mg/kg, iv; format: ADME, organism-based
[5] = Thermodynamic solubility of compound at pH 7.4; format: physicochemical; conditions: buffer, read-out: Therm_solubility
[6] = Volume of distribution at steady state in Wistar Han rat at 2.3 mg/kg, iv; format: ADME, organism-based; conditions: in vivo, read-out: Vdss
[7] = Half life in human intestinal S9 fraction assessed as 2,2-difluoroethyl (3S)-3-{[2'-amino-5-fluoro-2-(morpholin-4-yl)-4,5'-bipyrimidin-6-yl]amino}-3-(hydroxymethyl)pyrrolidine-1-carboxylate level by enzymatic hydrolysis assay; format: ADME, subcellular, Intestine
MCF7 [8] = test: Antitumor activity against human MCF7 cells xenografted in mouse model assessed as tumor growth regression in presence of fulvestrant; format: functional, cell-based
[9] = AUC (0 to t) in Wistar Han rat at […], po; format: ADME, organism-based; conditions: in vivo
[10] = Oral bioavailability in Wistar Han rat at […]; format: ADME, organism-based; conditions: in vivo
[11] = AUC (0 to t) in Wistar Han rat assessed as 2,2-difluoroethyl (3S)-3-{[2'-amino-5-fluoro-2-(morpholin-4-yl)-4,5'-bipyrimidin-6-yl]amino}-3-(hydroxymethyl)pyrrolidine-1-carboxylate level at 2.3 mg/kg, iv; format: ADME, organism-based; design: dose 2.3 mg/kg; conditions: in vivo
[12] = AUC (0 to t) in Wistar Han rat at 2.3 mg/kg, iv; format: ADME, organism-based; design: dose 2.3 mg/kg; conditions: in vivo
[13] = Half life in Wistar Han rat at 2.3 mg/kg, iv; format: ADME, organism-based; conditions: in vivo
[14] = AUC (0 to t) in Wistar Han rat assessed as 2,2-difluoroethyl (3S)-3-{[2'-amino-5-fluoro-2-(morpholin-4-yl)-4,5'-bipyrimidin-6-yl]amino}-3-(hydroxymethyl)pyrrolidine-1-carboxylate level at […], po; format: ADME, organism-based; conditions: in vivo
[15] = Half life in rat intestinal S9 fraction assessed as 2,2-difluoroethyl (3S)-3-{[2'-amino-5-fluoro-2-(morpholin-4-yl)-4,5'-bipyrimidin-6-yl]amino}-3-(hydroxymethyl)pyrrolidine-1-carboxylate level by enzymatic hydrolysis assay; format: ADME, subcellular, Intestine
[16] = Cmax in Wistar Han rat assessed as 2,2-difluoroethyl (3S)-3-{[2'-amino-5-fluoro-2-(morpholin-4-yl)-4,5'-bipyrimidin-6-yl]amino}-3-(hydroxymethyl)pyrrolidine-1-carboxylate level at […], po; format: ADME, organism-based; conditions: in vivo
MCF7 [17] = test: Antitumor activity against human MCF7 cells xenografted in mouse model assessed as tumor growth inhibition; format: functional, cell-based
[18] = Tmax in Wistar Han rat assessed as 2,2-difluoroethyl (3S)-3-{[2'-amino-5-fluoro-2-(morpholin-4-yl)-4,5'-bipyrimidin-6-yl]amino}-3-(hydroxymethyl)pyrrolidine-1-carboxylate level at […], po; format: ADME, organism-based; conditions: in vivo
MDA-MB-361 = test: Antitumor activity against human MDA-MB-361 cells xenografted in mouse model assessed as tumor growth inhibition; format: functional, cell-based
[19] = Kinetic solubility of compound at pH 7.4 after 24 hrs by LC/MS/MS analysis; format: physicochemical; conditions: buffer, read-out: Kinetic_solubility
MCF7 [20] = test: Antitumor activity against human MCF7 cells xenografted in mouse model assessed as tumor growth regression in presence of fulvestrant and palbociclib; format: functional, cell-based
Rat1 [21] = test: Selectivity index, ratio of IC50 for recombinant human N-terminal Myr signal and C-terminal Flag-tagged PI3K p110beta to IC50 for recombinant human N-terminal Myr signal and C-terminal Flag-tagged PI3K p110alpha expressed in rat Rat1 cells; format: cell-based
[22] = molecular target: Phosphatidylinositol 4,5-bisphosphate 3-kinase catalytic subunit beta isoform (Homo sapiens, UniProt P42338); test: Inhibition of recombinant human N-terminal Myr signal and C-terminal Flag-tagged PI3K p110beta expressed in rat Rat1 cells; format: cell-based
Rat1 [23] = test: Selectivity index, ratio of IC50 for recombinant human N-terminal Myr signal and C-terminal Flag-tagged PI3K p110delta to IC50 for recombinant human N-terminal Myr signal and C-terminal Flag-tagged PI3K p110alpha expressed in rat Rat1 cells; format: cell-based
[24] = molecular target: T1, Phosphatidylinositol 4,5-bisphosphate 3-kinase catalytic subunit delta isoform (Homo sapiens, UniProt O00329); test: Inhibition of recombinant human N-terminal Myr signal and C-terminal Flag-tagged PI3K p110delta expressed in rat Rat1 cells; format: cell-based
T1 sequence (O00329 whole entry): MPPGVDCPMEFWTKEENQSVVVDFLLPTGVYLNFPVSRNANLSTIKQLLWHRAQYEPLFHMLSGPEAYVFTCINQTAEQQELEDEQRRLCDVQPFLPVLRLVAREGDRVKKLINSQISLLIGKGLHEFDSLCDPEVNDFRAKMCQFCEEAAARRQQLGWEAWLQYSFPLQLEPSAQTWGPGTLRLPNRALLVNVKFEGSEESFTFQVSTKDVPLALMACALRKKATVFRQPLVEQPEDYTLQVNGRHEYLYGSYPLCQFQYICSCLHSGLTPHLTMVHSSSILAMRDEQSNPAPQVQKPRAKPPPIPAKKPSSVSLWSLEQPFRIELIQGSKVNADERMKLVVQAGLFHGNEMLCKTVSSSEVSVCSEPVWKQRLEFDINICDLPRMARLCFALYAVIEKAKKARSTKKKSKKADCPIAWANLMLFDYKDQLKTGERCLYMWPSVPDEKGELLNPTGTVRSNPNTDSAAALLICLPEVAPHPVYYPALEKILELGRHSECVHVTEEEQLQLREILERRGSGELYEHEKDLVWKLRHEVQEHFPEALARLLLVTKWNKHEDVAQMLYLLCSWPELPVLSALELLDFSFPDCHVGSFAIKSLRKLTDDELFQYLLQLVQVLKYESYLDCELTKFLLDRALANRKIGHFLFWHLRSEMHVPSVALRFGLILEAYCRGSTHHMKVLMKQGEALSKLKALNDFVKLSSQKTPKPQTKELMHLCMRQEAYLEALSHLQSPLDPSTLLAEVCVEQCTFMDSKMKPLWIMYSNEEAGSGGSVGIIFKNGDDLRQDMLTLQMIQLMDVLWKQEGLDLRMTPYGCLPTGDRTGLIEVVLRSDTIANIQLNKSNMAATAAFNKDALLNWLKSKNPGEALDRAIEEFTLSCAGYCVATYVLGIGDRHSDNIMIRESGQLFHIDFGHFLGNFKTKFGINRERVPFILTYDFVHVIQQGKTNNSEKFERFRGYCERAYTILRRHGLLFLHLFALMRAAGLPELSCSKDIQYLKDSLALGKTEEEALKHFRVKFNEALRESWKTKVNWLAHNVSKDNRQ

PI3K p110 beta/p85 alpha = PI3K p110 beta/p85 alpha (Homo sapiens, UniProt P42338); test: Inhibition of recombinant human PI3K p110beta/p85alpha using phosphatidylinositol 4,5-bisphosphate as substrate preincubated for 15 mins followed by addition of ATP and measured after 30 mins by fluorescence polarisation assay; format: protein-complex assay
[25] = Distribution coefficient, logD of compound at pH 7.4; format: physicochemical; conditions: octanol/water
[26] = Passive permeability of compound in RRCK cells; format: ADME, cell-based, Canis lupus familiaris, MDCKII-LE; conditions: dog, MDCK; read-out: permeability
[27] = Apparent intrinsic clearance in human liver microsomes; format: ADME, Microsome; conditions: read-out: CLH(app)
[28] = Kinetic solubility of compound; format: physicochemical; conditions: read-out: Kinetic_solubility
[29] = molecular target: Phosphatidylinositol 4,5-bisphosphate 3-kinase catalytic subunit alpha isoform (Homo sapiens, UniProt P42336); test: Inhibition of recombinant human N-terminal Myr signal and C-terminal Flag-tagged PI3K p110alpha expressed in rat Rat1 cells; format: cell-based
[30] = molecular target: PI3-kinase p110-delta/p85-alpha (Homo sapiens, UniProt O00329); test: Inhibition of recombinant human PI3K p110delta/p85alpha using phosphatidylinositol 4,5-bisphosphate as substrate preincubated for 15 mins followed by addition of ATP and measured after 30 mins by fluorescence polarisation assay; format: protein-complex assay
Homo sapiens [31] = species on record: Homo sapiens; test: Selectivity index, ratio of Ki for recombinant human PI3K p110beta/p85alpha to Ki for recombinant human full-length PI3K p110alpha/p85alpha (322 to 600) using phosphatidylinositol 4,5-bisphosphate as substrate
[32] = molecular target: PI3-kinase p110-alpha/p85-alpha (Homo sapiens, UniProt P42336); test: Inhibition of recombinant human full-length PI3K p110alpha/p85alpha (322 to 600) expressed in baculovirus infected Sf21 cells using phosphatidylinositol 4,5-bisphosphate as substrate preincubated for 15 mins followed by addition of ATP and measured after 30 mins by fluorescence polarisation assay
Homo sapiens [33] = species on record: Homo sapiens; test: Selectivity index, ratio of Ki for recombinant human PI3K p110delta/p85alpha to Ki for recombinant human full-length PI3K p110alpha/p85alpha (322 to 600) using phosphatidylinositol 4,5-bisphosphate as substrate

Phosphatidylinositol 4,5-bisphosphate 3-kinase catalytic subunit beta isoform, sequence (P42338 whole entry, canonical isoform): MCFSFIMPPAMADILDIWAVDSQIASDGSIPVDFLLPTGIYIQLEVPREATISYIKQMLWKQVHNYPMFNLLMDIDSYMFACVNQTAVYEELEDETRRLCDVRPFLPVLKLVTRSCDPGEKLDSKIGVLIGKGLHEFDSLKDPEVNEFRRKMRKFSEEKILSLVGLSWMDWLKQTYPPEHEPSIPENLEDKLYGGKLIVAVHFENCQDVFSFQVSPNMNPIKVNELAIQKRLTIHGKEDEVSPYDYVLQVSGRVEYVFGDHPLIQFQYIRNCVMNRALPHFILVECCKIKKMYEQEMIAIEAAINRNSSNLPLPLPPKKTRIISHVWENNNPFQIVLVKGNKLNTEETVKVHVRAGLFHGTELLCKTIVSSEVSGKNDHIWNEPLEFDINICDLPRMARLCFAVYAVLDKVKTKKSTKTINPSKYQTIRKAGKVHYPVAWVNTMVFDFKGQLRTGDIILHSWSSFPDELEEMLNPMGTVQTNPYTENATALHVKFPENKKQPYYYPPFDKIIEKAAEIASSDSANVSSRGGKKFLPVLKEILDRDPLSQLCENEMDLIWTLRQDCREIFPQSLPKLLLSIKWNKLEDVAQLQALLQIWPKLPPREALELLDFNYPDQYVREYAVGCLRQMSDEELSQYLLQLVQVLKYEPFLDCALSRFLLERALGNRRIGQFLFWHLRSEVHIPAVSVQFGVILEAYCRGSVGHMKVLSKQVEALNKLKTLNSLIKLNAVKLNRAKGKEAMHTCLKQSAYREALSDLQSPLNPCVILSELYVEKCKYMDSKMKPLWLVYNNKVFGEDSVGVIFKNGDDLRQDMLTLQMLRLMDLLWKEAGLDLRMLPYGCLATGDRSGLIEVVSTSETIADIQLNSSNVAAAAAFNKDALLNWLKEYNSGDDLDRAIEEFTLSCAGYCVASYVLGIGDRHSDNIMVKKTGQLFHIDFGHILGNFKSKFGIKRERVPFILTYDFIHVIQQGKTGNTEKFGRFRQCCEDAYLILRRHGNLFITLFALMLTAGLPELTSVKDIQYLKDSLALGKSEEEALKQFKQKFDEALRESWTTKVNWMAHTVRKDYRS
Phosphatidylinositol 4,5-bisphosphate 3-kinase catalytic subunit alpha isoform, sequence (P42336 whole entry, canonical isoform): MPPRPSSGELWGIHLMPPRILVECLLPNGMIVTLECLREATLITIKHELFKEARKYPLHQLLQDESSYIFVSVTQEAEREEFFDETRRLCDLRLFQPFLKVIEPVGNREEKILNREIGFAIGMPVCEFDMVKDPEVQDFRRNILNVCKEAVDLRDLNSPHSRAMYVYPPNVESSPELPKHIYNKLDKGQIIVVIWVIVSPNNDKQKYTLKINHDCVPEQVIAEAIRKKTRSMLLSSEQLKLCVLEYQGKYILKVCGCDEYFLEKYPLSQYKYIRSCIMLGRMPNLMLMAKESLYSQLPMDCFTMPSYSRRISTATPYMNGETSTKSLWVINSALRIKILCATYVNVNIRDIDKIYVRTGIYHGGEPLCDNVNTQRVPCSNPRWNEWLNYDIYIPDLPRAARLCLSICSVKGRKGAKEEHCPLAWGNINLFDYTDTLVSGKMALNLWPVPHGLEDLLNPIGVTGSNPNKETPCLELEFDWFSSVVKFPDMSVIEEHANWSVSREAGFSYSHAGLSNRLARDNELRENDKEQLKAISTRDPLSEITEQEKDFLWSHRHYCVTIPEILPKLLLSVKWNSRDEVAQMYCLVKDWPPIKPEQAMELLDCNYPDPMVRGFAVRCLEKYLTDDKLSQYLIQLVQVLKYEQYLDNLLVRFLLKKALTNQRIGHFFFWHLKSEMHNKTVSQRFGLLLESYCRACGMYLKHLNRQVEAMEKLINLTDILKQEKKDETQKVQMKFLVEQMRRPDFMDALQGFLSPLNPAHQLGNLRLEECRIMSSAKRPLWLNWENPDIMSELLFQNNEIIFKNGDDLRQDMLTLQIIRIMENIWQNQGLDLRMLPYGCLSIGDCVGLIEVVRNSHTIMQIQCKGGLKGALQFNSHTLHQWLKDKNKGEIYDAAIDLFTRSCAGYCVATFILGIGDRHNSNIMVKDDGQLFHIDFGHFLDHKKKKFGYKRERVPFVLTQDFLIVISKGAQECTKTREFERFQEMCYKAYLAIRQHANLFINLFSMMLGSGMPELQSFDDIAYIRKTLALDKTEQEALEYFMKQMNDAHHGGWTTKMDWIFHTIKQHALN
PI3K p110 beta/p85 alpha, sequence (P27986 whole entry): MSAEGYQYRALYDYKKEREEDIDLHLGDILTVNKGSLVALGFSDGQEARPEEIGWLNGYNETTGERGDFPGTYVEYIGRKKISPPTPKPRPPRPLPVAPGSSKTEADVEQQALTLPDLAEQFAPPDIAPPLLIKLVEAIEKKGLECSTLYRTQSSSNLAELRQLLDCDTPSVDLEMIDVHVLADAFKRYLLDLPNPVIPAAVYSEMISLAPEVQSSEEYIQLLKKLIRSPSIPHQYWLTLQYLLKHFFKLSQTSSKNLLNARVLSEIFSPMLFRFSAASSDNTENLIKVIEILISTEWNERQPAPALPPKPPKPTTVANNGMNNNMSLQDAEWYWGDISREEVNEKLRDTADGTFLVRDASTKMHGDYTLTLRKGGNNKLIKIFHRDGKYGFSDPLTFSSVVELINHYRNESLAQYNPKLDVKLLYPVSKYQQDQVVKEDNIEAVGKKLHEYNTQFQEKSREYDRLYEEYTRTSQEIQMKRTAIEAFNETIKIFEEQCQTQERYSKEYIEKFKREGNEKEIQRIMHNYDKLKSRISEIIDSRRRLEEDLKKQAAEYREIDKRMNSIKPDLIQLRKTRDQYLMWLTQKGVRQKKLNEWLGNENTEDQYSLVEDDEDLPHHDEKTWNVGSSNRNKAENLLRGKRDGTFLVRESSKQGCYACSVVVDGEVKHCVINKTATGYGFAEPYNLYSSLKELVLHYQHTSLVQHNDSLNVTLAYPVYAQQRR
PI3K p110 beta/p85 alpha, sequence (P42338 whole entry): as the sequence (P42338 whole entry, canonical isoform) above
PI3-kinase p110-delta/p85-alpha, sequence (P27986 whole entry, one chain of several): as the sequence (P27986 whole entry) above
PI3-kinase p110-alpha/p85-alpha, sequence (P27986 whole entry): as above
PI3-kinase p110-alpha/p85-alpha, sequence (P42336 whole entry): as the sequence (P42336 whole entry, canonical isoform) above

Cmax [2]: 4.3 ng/mL
Tmax [3]: 10.2 min
clearance [4]: 89 mL/min/kg
solubility thermodynamic [5]: 6200 µg/mL (≈ 10.7 mM)
Vd [6]: 0.34 L/kg
t1/2 [7]: 14 min
AUC(0-t) [9]: 2.9 ng·h/mL
bioavailability [10]: 0.14%
AUCt [11]: 900 ng·h/mL
AUC(0-t) [12]: 430 ng·h/mL
half-life [13]: 16.8 min
AUCt [14]: 1500 ng·h/mL
t1/2 [15]: 86 min
Cmax [16]: 290 ng/mL
Tmax [18]: 2 h
solubility kinetic at 24 h [19]: 310 µg/mL (≈ 0.536 mM)
SMILES: Nc1ncc(-c2nc(N3CCOCC3)nc(N[C@@]3(COP(=O)(O)O)CCN(C(=O)OCC(F)F)C3)c2F)cn1
Activity (MCF7 [1]): Active
Activity (MCF7 [8]): Active
TGI (MCF7 [17]): Active
TGI (MDA-MB-361): Active
Activity (MCF7 [20]): Active

pIC50 [22]: 6.19
pIC50 [24]: 7.04
pKi (PI3K p110 beta/p85 alpha): 7.60
logD [25]: 3.7
Papp [26]: 21 ×10⁻⁶ cm/s
microsomal CLint [27]: 160 µL/min/mg
solubility kinetic [28]: 97 µM (≈ 46.8 µg/mL)
pIC50 [29]: 8.17
pKi [30]: 9.34
Ratio Ki (Homo sapiens [31]): > 1390
pKi [32]: > 10.74
Ratio Ki (Homo sapiens [33]): > 26
SMILES: CC(C)(C)OC(=O)N1CC[C@](C)(N2CCc3c(-c4cnc(N)nc4)nc(N4CCOCC4)nc32)C1
Ratio IC50 (Rat1 [21]): 94
Ratio IC50 (Rat1 [23]): 14
